A short description of series [1]: In vitro stability in synthetic gastric fluid (SGF, pepsin+HCL, pH 1.2) at 37° C., HPLC. As to conditions: pH 1.2, 37° C. The format is in vitro ADME. As to the method:
FIG. 13 graphically illustrates an in vitro stability analysis of the native and RID peptides in synthetic gastric fluid (SGF, pepsin+HCL, pH 1.2) at 37° C., as measured by HPLC. This Figure indicates the rate of proteolysis of the AT1R-ECL2 L-amino acid peptide and the AT1R-ECL2 RID peptide under these conditions.
In FIG. 13, the AT1R-ECL2 L-amino acid peptide and the AT1R-ECL2 RID peptide were each separately incubated in artificial gastric juice (SGF, pepsin+HCL, pH 1.2) at 37° C., and proteolysis of the peptides was measured by HPLC.

Series [2] in a line: In vitro stability in human serum at 37° C., HPLC. It is filed as in vitro ADME.
Series [3] relates to β1AR-AAb. As to the kind of experiment: Heart rate and sustained arrhythmias in β1AR-AAb + T4 excess animals. It is filed as in vivo, rabbit. The method, then:
(§1) The RID peptide was utilized in a study measuring the effective refractory period (ERP) in five New Zealand white rabbits. The procedures performed are outlined in the flow chart of FIG. 8. The ERP was measured during a pre-immune state and following immunization with β1AR ECL2 peptide to generate autoantibodies thereto, as described previously (Li et al. Am J Physiol Heart Circ Physiol. (2014) 306:H422-428). This was followed by administration of T4 (40 μg/kg), and an additive effect was observed on induced atrial tachyarrhythmias with the appearance of AF in a significant percentage of the T4 treated animals. […] In addition, the ERP in the rabbits was measured following administration of the β1AR-ECL2 RID peptide 90 minutes after T4.

The subject of series [4] is β1AR-AAb. As to the kind of experiment: Effective refractory period (ERP) in β1AR-immunized rabbits. It is filed as in vivo, rabbit.
Excerpt: FIG. 8 contains a flow chart depicting the protocol of the procedures performed in rabbits in a study to determine the effective refractory period (ERP) in atrial cells in rabbit-models with pre-immune, post-immune (β1AR-immunization), and post-immune plus β1AR-ECL2 RID peptide administration. The ERP inversely is one parameter of the susceptibility of the cardiac cells to induction of tachyarrhythmias.
as §1
FIG. 10 illustrates the mean ERP for an atrial catheter lead.

Series [5] relates to AT1R activating autoantibodies. As to the kind of experiment: Isolated rat cremaster artery contractility induced by serum of AT1R 2nd ECL peptide immunized rabbits. Also noted: species or system rabbit. Conditions: with ARB losartan. The text has this: FIG. 4, Panel A illustrates the dose related contractile effect of serum from an AT1R 2nd ECL peptide immunized rabbit on an isolated rat cremaster artery. The in vitro contractile changes were expressed as % change (decrease) in diameter with the increasing dosage concentration (dilution). These effects are blocked by the selective angiotensin II receptor blocker (ARB) losartan.
There was a significant increase of in vitro cremaster contractility (p<0.01) in the post-immune state compared to the pre-immune values.
FIG. 5 illustrates the effect of in vitro incubation of the RID peptide with serum containing AT1R activating autoantibodies (rabbit) on cremaster artery contractility. […] The same response was observed when the serum was pre-incubated with the L-amino acid target peptide (FIG. 5, Panel B).
Data provided herein were obtained with immunized rabbit serum containing autoantibodies that will stimulate AT1R receptors transfected into CHO cells. […] A bioassay for Angiotensin II-like activity using an isolated perfused cremaster artery in vitro has also been developed.

In the next series the test system is AT1R autoantibodies. As to the kind of experiment: Binding of iodinated RID peptide to autoantibodies. Conditions: iodine atom in the molecular structure. The method, then:
While therapeutic methods of using the RID peptides have been envisioned above, the scope of the presently disclosed inventive concepts also includes diagnostic uses of the RID peptides as well. The studies shown in FIGS. 12 and 13 were conducted at high concentrations (>250 μg/ml), and these concentrations are too high for study of absorption and use as part of a direct assay of serum binding to autoantibodies.

Series [6] has as its system β1AR-AAb. The experiment in a line: cAMP production in β1AR-CHO cells stimulated by post-immune sera. The format is cell-based, rabbit. Background: Changes in cAMP serve as a functional read-out for many G protein-coupled receptors.
The conditions of series [7]: rabbit, in vivo.

Entries after “also recorded” stand apart in the source; their conditions may differ. Marks after values point to notes of the source that are not given here. Square brackets hold non-standard residues; d marks the D form. Ends that are not written are not given here. Peptide text beside a SMILES is read from it.

Consider `C[C@H](N)C(=O)N[C@@H](Cc1ccccc1)C(=O)N[C@@H](Cc1c[nH]cn1)C(=O)N[C@@H](Cc1ccc(O)cc1)C(=O)N[C@@H](CCC(=O)O)C(=O)N[C@@H](CO)C(=O)N[C@@H](CCC(N)=O)C(=O)O` [AT1R-ECL2 L-amino acid peptide, AFHYESQ, reference compound] (H-AFHYESQ-OH; N-terminus and C-terminus assumed), for which the “rate of proteolysis compared with the RID peptide” value in series [1] is listed as “proteolyzed at a much faster rate”.

Consider `C[C@@H](NC(=O)[C@@H](Cc1ccccc1)NC(=O)[C@@H](Cc1c[nH]cn1)NC(=O)[C@@H](Cc1ccc(O)cc1)NC(=O)[C@@H](CCC(=O)O)NC(=O)[C@@H](CO)NC(=O)[C@H](N)CCC(N)=O)C(=O)O` [AT1R-ECL2 RID peptide, qseyhfa] (H-[dQ][dS][dE][dY][dH][dF][dA]-OH; N-terminus and C-terminus assumed), for which the peptide remaining intact in series [2] (24 hours (data not shown)) came out at 80%. The “integrity at two hours” value in series [2] was “resistance”; in series [2] (listed as AT2R-ECL2 RID peptide), “remained intact”. In addition, the “integrity for four hours” value in series [1] (four hours) was “remained intact”. Moreover, the amount remaining (usually the share of the starting amount still present when the sample was taken) at 6 h in series [1] (synthetic gastric fluid (SGF), six hours, read-out: peptide remaining) came to 60%.

Consider `N[C@@H](Cc1cc(I)c(Oc2cc(I)c(O)c(I)c2)c(I)c1)C(=O)O` [T4, thyroxine, reference compound], for which, in the series on β1AR-AAb [3] (Post-immune + T4), the “#sustained arrhythmias/#induction attempts” value was 20/20**^#, the Heart rate amounted to 280 ± 56 beats/min, the “Sustained AF” value is 2/20 and the “Sustained AFL” value is 0/20. In the series with β1AR-AAb [3] (Post-immune + T4), the “Sustained AT” value was 2/20, the “Sustained JT” value was 2/20, the “Sustained ST” value is 11/20** and the “Sustained VT” value is listed as 3/20. The “effect on ERP” value in the series with β1AR-AAb [4] (post-immune + T4 (40 μg/kg), P<0.01) is “additive”.

Take `CCCCc1nc(Cl)c(CO)n1Cc1ccc(-c2ccccc2-c2nn[nH]n2)cc1` [losartan]: in series [5], the “contractile effect of immunized rabbit serum on isolated rat cremaster artery (% decrease in diameter)” value is recorded as “blocked”.

On to “AT1R-ECL2 RID peptide has been iodinated: AT1R-ECL2 RID peptide directly iodinated; iodine atom in the structure blocked binding ([dQ][dS][dE][dY][dH][dF][dA]; also: directly iodinated, place not given here)”, for which, in the series on AT1R autoantibodies, the binding to autoantibodies result is on record as “blocked binding”.

As to dcckpdnycr [β1AR-ECL2 RID peptide], the “sera-induced β1AR activation of cAMP production in β1AR-transfected cells” value in the series on β1AR-AAb [6] (sera pre-incubated with RID peptide, P<0.01) was “effectively blocked”. In the series with β1AR-AAb [6] (sera taken 90 after IV injection of 1 mg/Kg BW), the “ability of post-immune sera to stimulate cAMP in β1AR-CHO cells” value is on record as “marked reduction of the ability to stimulate cAMP”. In the series on β1AR-AAb [3] (Post-immune + T4 + β1AR-RID), the “#sustained arrhythmias/#induction attempts” value is reported as 6/20*^++, the Heart rate is listed as 241 ± 35**^##+ beats/min, the “Sustained AF” value was 0/20 and the “Sustained AFL” value is given as 0/20. For the same compound, in the series on β1AR-AAb [3] (Post-immune + T4 + β1AR-RID), the “Sustained AT” value is 1/20, the “Sustained JT” value is on record as 2/20, the “Sustained ST” value is reported as 3/20^+ and the “Sustained VT” value was 0/20. In addition, the “effect on ERP (msec), right atrial lead” value in the series with β1AR-AAb [4] (post-immune + RID peptide IV, over 90 minutes) is recorded as “dramatic rise in ERP; also recorded: reverses the shortening of the ERP”. The “effect on ERP” value in the series on β1AR-AAb [4] (post-immune + T4 + RID peptide, 90 minutes after T4) is “reversed the β1AR-AAb effects but not the effect caused by T4”. Also, in series [7], the “anti-RID antibodies by ELISA (immunogenicity)” value is on record as “failed to demonstrate anti-RID antibodies”.

The values are drawn from patent publication US10899822B2, “Compositions comprising D-amino acid peptides and methods of production and use thereof for inhibiting autoantibodies” (The Board of Regents of the University of Oklahoma, priority 2013, dated 2021).
